Experimental data: US9738657B2, “Highly efficient polarizing agents for dynamic nuclear polarization” (Bruker Biospin S.A.S., priority 2013, dated 2017)
Converted amounts (≈) assume the structure as drawn.

Assay: Solubility in Glycerol/H2O (60/40)
Conditions: for solubility: glycerol/water (60/40), aqueous with cosolvent or surfactant or cyclodextrin

Row | Compound | Solubility in Glycerol/H2O (60/40) | solubility
1 | (15-{[(7-oxyl-3,11-dioxa-7-azadispiro[5.1.5.3]hexadec-15-yl)carbamoyl][2-(2-methoxyethoxy)ethyl]amino}-[3,11-dioxa-7-azadispiro[5.1.5.3]hexadec-7-yl])oxidanyl [Compound 57] | ~25 mM | 
2 | (4-{(2,5,8,11-tetraoxatridecan-13-yl)[(1-oxyl-2,2,6,6-tetramethyl piperidin-4-yl)carbamoyl]amino}-2,2,6,6-tetramethylpiperidin-1-yl)oxidanyl [Compound 52] | ~10 mM | 
3 | (4-{[2-(2-methoxyethoxy)ethyl][(1-oxyl-2,2,6,6-tetramethylpiperidin-4-yl)carbamoyl]amino}-2,2,6,6-tetramethylpiperidin-1-yl)oxidanyl [Compound 51] | ~10 mM | 
4 | α-{(7-Oxyl-3,11-dioxa-7-azadispiro[5.1.5.3]hexadec-15-yl)[(7-oxyl-3,11-dioxa-7-azadispiro[5.1.5.3]hexadec-15-yl)carbamoyl]amino}ω-methylpoly(ethane-1,2-diyloxy) [Compound 72] | >20 mM | 
5 | COCCOCCOCCOCCOC1CN(C2CC3(CCOCC3)N([O])C3(CCOCC3)C2)C(=O)N(C2CC3(CCOCC3)N([O])C3(CCOCC3)C2)C1 (stereo not shown) [Compound 70, 1,3-Bis(7-oxyl-3,11-dioxa-7-azadispiro[5.1.5.3]hexadec-15-yl)-5-(2,5,8,11-tetraoxatridecan-13-yloxy)tetrahydropyrimidin-2(1H)-one] |  | > 10 mM
6 | O=C(NC1CC2(CCOCC2)N(O)C2(CCOCC2)C1)N(CCOCCO)C1CC2(CCOCC2)N(O)C2(CCOCC2)C1 (stereo not shown) [Compound 71, (15-{[(7-Oxyl-3,11-dioxa-7-azadispiro[5.1.5.3]hexadec-15-yl)carbamoyl][2-(2-hydroxyethoxy)ethyl]amino}-[3,11-dioxa-7-azadispiro[5.1.5.3]hexadec-7-yl])oxidanyl] |  | > 20 mM
7 | [O]N1C2(CCOCC2)CC(NC(=O)NC2CC3(CCOCC3)N([O])C3(CCOCC3)C2)CC12CCOCC2 (stereo not shown) [Compound 56, (15-{[(7-Oxyl-3,11-dioxa-7-azadispiro[5.1.5.3]hexadec-15-yl)carbamoyl]amino}-[3,11-dioxa-7-azadispiro[5.1.5.3]hexadec-7-yl])oxidanyl] |  | ~25 mM (≈ 13.4 mg/mL)
8 | 4,4-ureylene-di-(2,2,6,6-tetramethylpiperidinyloxyl) [bTUrea, reference compound] | ~3 mM | 
9 | (15-{[(7-oxyl-3,11-dioxa-7-azadispiro[5.1.5.3]hexadec-15-yl)carbamoyl][2-(2,5,8,11-tetraoxatridecan-13-ylamino)}-[3,11-dioxa-7-azadispiro[5.1.5.3]hexadec-7-yl])oxidanyl [Compound 58] | ~25 mM | 
10 | (4-{3-[1-(PEG)-1H-1,2,3-Triazol-4-yl]propyl}[(1-oxyl-2,2,6,6-tetramethylpiperidin-4-yl)carbamoyl]amino}-2,2,6,6-tetramethylpiperidin-1-yl)oxidanyl [Compound 61] | ~20 mM | 
